Each structure is given as a SMILES string.

Type in all cases: functional, cell-based
One assay relates to PSN1. As to the kind of experiment: Antiproliferative activity against human PSN1 cells after 72 hrs by WST8 assay. To be noted: PSN1, 72 h. In general terms: Tetrazolium assays rely on reduction of a dye to a coloured formazan, in cell work by metabolically active cells.
Assay [1] is described as follows: Antiproliferative activity against human TIG3 cells after 72 hrs by WST8 assay. To be noted: TIG-3, 72 h.
Another assay deals with A549. As to the kind of experiment: Antiproliferative activity against human A549 cells after 72 hrs by WST8 assay. To be noted: A549, 72 h.
Assay [2] in a line: Antiproliferative activity against human PANC1 cells after 72 hrs by WST8 assay. To be noted: PANC-1, 72 h.
Another assay relates to MDA-MB-231. The experiment in a line: Antiproliferative activity against human MDA-MB-231 cells after 72 hrs by WST8 assay. To be noted: MDA-MB-231, 72 h.

On to `C=C[C@]1(C)C=C2CC[C@H]3C(C)(C)[C@H](O)C[C@H](O)[C@]3(C)[C@H]2CC1`, for which inhibition with PSN1 was half-maximal at 12.3 µM (IC50).
Consider `O=c1[nH]cc(F)c(=O)[nH]1` [FLUOROURACIL], for which the concentration for half-maximal inhibition (IC50) (in general, the midpoint of a concentration-inhibition curve) in assay [1] is 8.4 µM; in the assay with A549, 2.8 µM; in assay [2], 3.7 µM; in the assay on PSN1, 4.4 µM; in the assay with MDA-MB-231 it was 5.2 µM.
